What was measured:
[1] = molecular target: T1, récepteurs hormonaux humains recombinant androgène (hAN) (Homo sapiens, UniProt P10275); assay: Relative binding affinity for recombinant hormone receptors (SF9 insect cell-baculovirus overexpression)
T1 construct: made in house; host or cells: SF9 insect cells / baculovirus
Source text: (§1) Cette affinité a été étudiée sur les récepteurs hormonaux humains recombinant de la progestérone (hPR), androgène (hAN), glucocorticoide (hGR) et estrogène (hER).

[2] = In vivo studies of the hormonal activity profile
[3] = molecular target: T2, récepteurs hormonaux humains recombinant de la progestérone (hPR) (Homo sapiens, UniProt P06401); assay: Relative binding affinity for recombinant hormone receptors (SF9 insect cell-baculovirus overexpression)
T2 construct: made in house; host or cells: SF9 insect cells / baculovirus
T2 sequence (P06401 1-933): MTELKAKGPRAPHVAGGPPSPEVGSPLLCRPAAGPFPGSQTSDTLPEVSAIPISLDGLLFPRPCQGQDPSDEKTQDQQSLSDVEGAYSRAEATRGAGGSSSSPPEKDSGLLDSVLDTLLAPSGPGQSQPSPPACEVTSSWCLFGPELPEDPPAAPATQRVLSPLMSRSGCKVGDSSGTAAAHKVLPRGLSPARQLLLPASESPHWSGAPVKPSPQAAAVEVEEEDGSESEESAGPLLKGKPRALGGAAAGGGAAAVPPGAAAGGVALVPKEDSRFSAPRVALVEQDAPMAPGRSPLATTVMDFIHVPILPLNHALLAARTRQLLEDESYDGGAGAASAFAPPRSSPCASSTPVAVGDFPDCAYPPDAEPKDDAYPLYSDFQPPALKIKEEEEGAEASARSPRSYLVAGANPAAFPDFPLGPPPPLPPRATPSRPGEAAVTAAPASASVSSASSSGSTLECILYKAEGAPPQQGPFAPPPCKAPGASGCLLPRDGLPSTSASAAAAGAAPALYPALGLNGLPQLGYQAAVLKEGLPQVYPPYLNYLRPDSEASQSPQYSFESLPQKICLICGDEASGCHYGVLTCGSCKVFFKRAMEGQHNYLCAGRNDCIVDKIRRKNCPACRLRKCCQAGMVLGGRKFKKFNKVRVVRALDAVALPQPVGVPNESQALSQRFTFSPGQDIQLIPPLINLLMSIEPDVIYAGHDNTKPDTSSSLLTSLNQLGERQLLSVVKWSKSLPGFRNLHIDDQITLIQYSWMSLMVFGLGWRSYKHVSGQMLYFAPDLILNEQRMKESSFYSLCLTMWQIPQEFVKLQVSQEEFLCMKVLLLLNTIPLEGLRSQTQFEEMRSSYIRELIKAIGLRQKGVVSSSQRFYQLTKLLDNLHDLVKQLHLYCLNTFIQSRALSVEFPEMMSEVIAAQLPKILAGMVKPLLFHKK
Source text: as §1

[4] = molecular target: T3, récepteurs hormonaux humains recombinant estrogène (hER) (Homo sapiens, UniProt P03372); assay: as above
T3 construct: made in house; host or cells: SF9 insect cells / baculovirus
T3 sequence (P03372 1-595): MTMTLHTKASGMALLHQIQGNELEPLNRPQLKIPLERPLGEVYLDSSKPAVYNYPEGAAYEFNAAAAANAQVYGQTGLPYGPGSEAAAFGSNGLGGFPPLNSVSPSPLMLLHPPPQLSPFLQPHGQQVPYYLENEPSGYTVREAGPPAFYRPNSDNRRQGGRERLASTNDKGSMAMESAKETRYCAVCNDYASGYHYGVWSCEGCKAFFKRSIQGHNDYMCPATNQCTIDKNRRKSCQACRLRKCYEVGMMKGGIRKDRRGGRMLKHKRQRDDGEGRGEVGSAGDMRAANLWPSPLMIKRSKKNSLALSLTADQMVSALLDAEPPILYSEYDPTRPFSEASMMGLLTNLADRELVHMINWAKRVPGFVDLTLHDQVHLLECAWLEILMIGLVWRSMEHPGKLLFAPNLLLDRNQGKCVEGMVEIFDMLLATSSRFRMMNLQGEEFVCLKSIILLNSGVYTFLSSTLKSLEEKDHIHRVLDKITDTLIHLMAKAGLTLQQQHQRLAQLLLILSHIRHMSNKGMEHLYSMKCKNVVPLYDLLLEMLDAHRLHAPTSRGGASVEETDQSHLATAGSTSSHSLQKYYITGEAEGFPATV
Source text: as §1

[5] = molecular target: T4, récepteurs hormonaux humains recombinant glucocorticoide (hGR) (Homo sapiens, UniProt P04150); assay: as above
T4 construct: made in house; host or cells: SF9 insect cells / baculovirus
T4 sequence (P04150 1-777): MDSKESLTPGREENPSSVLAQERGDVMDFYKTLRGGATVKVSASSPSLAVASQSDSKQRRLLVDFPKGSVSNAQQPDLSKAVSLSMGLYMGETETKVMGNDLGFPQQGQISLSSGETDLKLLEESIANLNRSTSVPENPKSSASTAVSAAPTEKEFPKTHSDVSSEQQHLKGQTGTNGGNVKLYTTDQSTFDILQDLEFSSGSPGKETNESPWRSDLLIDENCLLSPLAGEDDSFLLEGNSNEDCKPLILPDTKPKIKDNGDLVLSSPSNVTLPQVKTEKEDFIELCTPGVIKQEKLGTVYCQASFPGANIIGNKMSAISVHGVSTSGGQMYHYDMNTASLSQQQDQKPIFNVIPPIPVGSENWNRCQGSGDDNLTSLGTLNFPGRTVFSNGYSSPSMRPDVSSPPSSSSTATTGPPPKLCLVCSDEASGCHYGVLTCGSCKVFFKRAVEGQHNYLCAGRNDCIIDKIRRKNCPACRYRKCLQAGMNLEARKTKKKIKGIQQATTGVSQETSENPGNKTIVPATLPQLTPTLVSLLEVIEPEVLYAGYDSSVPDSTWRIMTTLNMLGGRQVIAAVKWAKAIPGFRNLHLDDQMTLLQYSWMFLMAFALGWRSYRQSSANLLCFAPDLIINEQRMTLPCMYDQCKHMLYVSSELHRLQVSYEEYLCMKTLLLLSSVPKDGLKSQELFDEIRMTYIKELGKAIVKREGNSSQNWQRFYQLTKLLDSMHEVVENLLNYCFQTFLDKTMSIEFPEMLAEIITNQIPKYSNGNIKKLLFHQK
Source text: Cette affinité a été étudiée sur les récepteurs hormonaux humains recombinant de la progestérone (hPR), androgène (hAN), glucocorticoide (hGR) et estrogène (hER). Ces récepteurs sont obtenus par surexpression dans un système cellules d'insectes-bacullovirus SF9 selon les méthodes décrites notamment dans la demande de brevet Européenne 0 629 635. Les affinité relatives de liaison (ARL) sont les suivantes : […]

T1 sequence (P10275 whole entry): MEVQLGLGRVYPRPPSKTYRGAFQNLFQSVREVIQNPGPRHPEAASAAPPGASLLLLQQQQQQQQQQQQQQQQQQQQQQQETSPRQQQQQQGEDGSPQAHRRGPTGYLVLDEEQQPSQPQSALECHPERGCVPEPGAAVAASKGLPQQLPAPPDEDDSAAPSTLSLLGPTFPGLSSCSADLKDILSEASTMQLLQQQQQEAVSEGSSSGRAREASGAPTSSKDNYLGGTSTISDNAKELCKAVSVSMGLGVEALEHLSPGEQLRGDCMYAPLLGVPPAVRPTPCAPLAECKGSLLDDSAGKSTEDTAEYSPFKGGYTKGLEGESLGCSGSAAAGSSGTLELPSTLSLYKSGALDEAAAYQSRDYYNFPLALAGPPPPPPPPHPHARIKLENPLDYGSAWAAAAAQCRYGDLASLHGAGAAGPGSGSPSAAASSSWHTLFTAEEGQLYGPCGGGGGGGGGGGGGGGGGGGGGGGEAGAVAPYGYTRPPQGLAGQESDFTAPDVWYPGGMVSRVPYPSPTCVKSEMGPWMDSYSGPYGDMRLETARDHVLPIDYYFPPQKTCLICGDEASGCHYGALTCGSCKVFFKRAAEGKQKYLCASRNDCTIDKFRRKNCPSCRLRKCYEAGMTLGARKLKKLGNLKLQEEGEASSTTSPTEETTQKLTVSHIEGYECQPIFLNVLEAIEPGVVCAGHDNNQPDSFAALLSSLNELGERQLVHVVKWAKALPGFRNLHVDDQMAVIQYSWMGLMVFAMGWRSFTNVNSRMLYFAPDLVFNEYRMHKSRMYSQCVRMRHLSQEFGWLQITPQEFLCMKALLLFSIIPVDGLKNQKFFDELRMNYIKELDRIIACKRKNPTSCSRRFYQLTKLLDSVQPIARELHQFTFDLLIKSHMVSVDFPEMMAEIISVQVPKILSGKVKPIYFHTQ

| Molecule | affinité vis-à-vis du récepteur androgène ([1]; in words) | activité androgène [2] | activité antiandrogène [2] | activité antiglucocorticoïde [2] | activité antiminéralocorticoïde [2] | activité estrogène [2] | activité glucocorticoïde [2] | activité minéralocorticoïde [2] | activité progestomimétique [2] | ARL hAN ([1]; relative binding affinity) | ARL hPR [3] | ARL hER [4] | ARL hGR [5] |
| --- | --- | --- | --- | --- | --- | --- | --- | --- | --- | --- | --- | --- | --- |
| C[C@H](O)C(=O)[C@@]1(C)CC[C@H]2[C@@H]3CCC4=CC(=O)CCC4=C3CC[C@@]21C [Trimegestone, 17alpha-méthyl-17béta-(2-hydroxy-1-oxo-propyl)-estra-4,9-dièn-3-one (21S)] | très faible affinité | dénué | présente | dénué | présente | dénué | dénué | dénué | puissant progestomimétique | – | – | – | – |
| medroxypropgestérone [MPA] | – | – | – | – | – | – | – | – | – | 36 | 298 | < 0,02 | 58 |
